The EC50 is the concentration that produces a half-maximal response. Read a low EC50 as an effect from little substance. Broadly, the CC50 is the concentration at which the toxic effect on the cells reaches its halfway point. Low readings indicate greater toxicity to the cells, high ones lower toxicity to the cells.

Data set [1] concerns HCV genotype 1a (HCV-1a) replicon cells. As to the kind of experiment: HCV genotype 1a replicon luciferase assay (EC50). Format: cell-based, hepatitis C virus genotype 1a (H77 clone). Particulars: Hepatitis C virus, 72 h, 3 days, luciferase (Bright-Glo). The method in brief: (§1)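 H77-derived 1a (K1691R, K2040R, S2204I) or Con1-derived 1b (E1202G, T1280I, K1846T) luciferase replicon cells, 8000/well, exposed 3 days at 37° C. to 6-point 5-fold dilutions (top 100, 10 or 1 nM; 0.5% DMSO), in duplicate. Bright-Glo luminescence read; EC50 from nonlinear fit of % inhibition.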
In general terms: In antiviral work, replicon cells carry a viral genome segment that copies itself.

The subject of data set [2] is HCV genotype 1b (HCV-1b) replicon cells. As to the kind of experiment: HCV genotype 1b replicon luciferase assay (EC50). The format is cell-based, hepatitis C virus genotype 1b (Con1 clone). The conditions noted are these: Hepatitis C virus, 72 h, 3 days, luciferase (Bright-Glo). The method in brief:
as §1

Data set [3] in a line: Cell Titer-fluor cell activity assay in HCV-1b replicon cells (CC50). Format: cell-based. Put shortly: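 Con1 genotype 1b replicon cells (E1202G, T1280I, K1846T adaptive mutations), 8000 cells/well, exposed to 6-point 5-fold dilutions from 100, 10 or 1 nM top concentration in 0.5% DMSO, duplicate wells, 3 days at 37 °C. Viability read by Cell Titer-fluor (Ex 405/Em 515 nm) after 30 min; CC50 from nonlinear fit of inhibition %.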

For the compound `COC(=O)N[C@H](C(=O)N1CCC[C@H]1c1ncc(-c2ccc(-c3ccc(-c4cnc([C@@H]5[C@H]6CC[C@H](C6)[C@H]5C(=O)N[C@@H](CO)c5cccnc5)[nH]4)cc3)cc2)[nH]1)C(C)C` [AA_243_ENDOA2_A], the EC50 in data set [1] lay within 1 to 10 nM; in data set [2] it was 0.001 to 0.1 nM. Besides, in data set [3], the CC50 at 3 days was > 1 nM.
The matching figures for `COC(=O)N[C@H](C(=O)N1CCC[C@H]1c1ncc(-c2ccc(-c3ccc(-c4cnc([C@@H]5[C@H]6CC[C@H](C6)[C@H]5C(=O)N[C@H](CO)c5cccnc5)[nH]4)cc3)cc2)[nH]1)C(C)C` [AA_243_ENDOA2_B]: 0.101 to 1 nM, 0.001 to 0.1 nM and > 1 nM.
For `COC(=O)N[C@H](C(=O)N1CCC[C@H]1c1ncc(-c2ccc(-c3ccc(-c4cnc([C@H]5C6CCC(C6)[C@@H]5C(=O)NNc5nccnc5Cl)[nH]4)cc3)cc2)[nH]1)C(C)C` (stereo partly drawn) [AA_244_A], in that order: 10 to 100 nM, 0.101 to 1 nM and > 1 nM.
The matching figures for `COC(=O)N[C@H](C(=O)N1CCC[C@H]1c1ncc(-c2ccc(-c3ccc(-c4cnc(C5C6CCC(C6)[C@H]5C(=O)NCc5cccnc5C(C)C)[nH]4)cc3)cc2)[nH]1)[C@@H](C)OC` (stereo partly drawn) [AA_245_A]: 10 to 100 nM, 0.001 to 0.1 nM and > 1 nM.
As for `COC(=O)N[C@H](C(=O)N1CCC[C@H]1c1ncc(-c2ccc(-c3ccc(-c4cnc(C5C6CCC(C6)[C@@H]5C(=O)NCc5cccnc5C(C)C)[nH]4)cc3)cc2)[nH]1)[C@@H](C)OC` (stereo partly drawn) [AA_245_B], the EC50 in data set [1] fell in the range of 10 to 100 nM; in data set [2], 0.101 to 1 nM. Besides, in data set [3], the CC50 at 3 days was > 1 nM.
For `COC(=O)N[C@H](C(=O)N1CCC[C@H]1c1ncc(-c2ccc(-c3ccc(-c4cnc(C5C6CCC(C6)[C@@H]5C(=O)Nc5ccccc5)[nH]4)cc3)cc2)[nH]1)[C@@H](C)OC` (stereo partly drawn) [AA_246_A], in that order: 10 to 100 nM, 0.001 to 0.1 nM and > 1 nM.
For `COC(=O)N[C@H](C(=O)N1CCC[C@H]1c1ncc(-c2ccc(-c3ccc(-c4cnc(C5C6CCC(C6)[C@H]5C(=O)Nc5ccccc5)[nH]4)cc3)cc2)[nH]1)[C@@H](C)OC` (stereo partly drawn) [AA_246_B], in that order: 10 to 100 nM, 0.101 to 1 nM and > 1 nM.
Regarding `COC(=O)N[C@H](C(=O)N1CCC[C@H]1c1ncc(-c2ccc(-c3ccc(-c4cnc(C5C6CCC(C6)[C@@H]5C(=O)N(C)c5ccccn5)[nH]4)cc3)cc2)[nH]1)[C@@H](C)OC` (stereo partly drawn) [AA_247_A], the values for the EC50 in data set [1] and in data set [2] were 0.101 to 1 nM and 0.001 to 0.1 nM, respectively. Moreover, the CC50 at 3 days in data set [3] was > 1 nM.
For `COC(=O)N[C@H](C(=O)N1CCC[C@H]1c1ncc(-c2ccc(-c3ccc(-c4cnc(C5C6CCC(C6)[C@H]5C(=O)N(C)c5ccccn5)[nH]4)cc3)cc2)[nH]1)[C@@H](C)OC` (stereo partly drawn) [AA_247_B], in that order: 1 to 10 nM, 0.001 to 0.1 nM and > 1 nM.
For `COC(=O)N[C@H](C(=O)N1CCC[C@H]1c1ncc(-c2ccc(-c3ccc(-c4cnc(C5C6CCC(C6)[C@H]5C(=O)NCc5ccncc5)[nH]4)cc3)cc2)[nH]1)[C@@H](C)OC` (stereo partly drawn) [AA_248_A], in that order: 10 to 100 nM, 0.101 to 1 nM and > 1 nM.
For `COC(=O)N[C@H](C(=O)N1CCC[C@H]1c1ncc(-c2ccc(-c3ccc(-c4cnc(C5C6CCC(C6)[C@@H]5C(=O)NCc5ccncc5)[nH]4)cc3)cc2)[nH]1)[C@@H](C)OC` (stereo partly drawn) [AA_248_B], in that order: 10 to 100 nM, 0.101 to 1 nM and > 1 nM.
As to `COC(=O)N[C@H](C(=O)N1CCC[C@H]1c1ncc(-c2ccc(-c3ccc(-c4cnc(C5C6CCC(C6)[C@@H]5C(=O)NCc5cncnc5)[nH]4)cc3)cc2)[nH]1)[C@@H](C)OC` (stereo partly drawn) [AA_249_A], the EC50 in data set [1] was 0.101 to 1 nM; in data set [2] it was 0.001 to 0.1 nM. Also, the CC50 at 3 days in data set [3] was > 1 nM.
For `COC(=O)N[C@H](C(=O)N1CCC[C@H]1c1ncc(-c2ccc(-c3ccc(-c4cnc(C5C6CCC(C6)[C@@H]5C(=O)NNc5nccnc5Cl)[nH]4)cc3)cc2)[nH]1)[C@@H](C)OC` (stereo partly drawn) [AA_250_A], in that order: 10 to 100 nM, 0.101 to 1 nM and > 1 nM.
The matching figures for `COC(=O)N[C@H](C(=O)N1CCC[C@H]1c1ncc(-c2ccc(-c3ccc(-c4cnc(C5C6CCC(C6)[C@H]5C(=O)NNc5nccnc5Cl)[nH]4)cc3)cc2)[nH]1)[C@@H](C)OC` (stereo partly drawn) [AA_250_B]: 10 to 100 nM, 1 to 10 nM and > 1 nM.
For `COC(=O)N[C@H](C(=O)N1CCC[C@H]1c1ncc(-c2ccc(-c3ccc(-c4cnc(C5C6CCC(C6)[C@H]5C(=O)NC(C)c5cccnc5)[nH]4)cc3)cc2)[nH]1)[C@@H](C)OC` (stereo partly drawn) [AA_251_A], in that order: 0.101 to 1 nM, 0.101 to 1 nM and > 1 nM.
Consider `COC(=O)N[C@H](C(=O)N1CCC[C@H]1c1ncc(-c2ccc(-c3ccc(-c4cnc(C5C6CCC(C6)[C@@H]5C(=O)NC(C)c5cccnc5)[nH]4)cc3)cc2)[nH]1)C(C)OC` (stereo partly drawn) [AA_251_B], for which the EC50 lay within 1 to 10 nM in data set [1] and 0.101 to 1 nM in data set [2]. Besides, the cytotoxic concentration (CC50) at 3 days in data set [3] was > 1 nM.
For `COC(=O)N[C@H](C(=O)N1CCC[C@H]1c1ncc(-c2ccc(-c3ccc(-c4cnc(C5C6CCC(C6)[C@@H]5C(=O)NC(C)c5cccnc5)[nH]4)cc3)cc2)[nH]1)[C@@H](C)OC` (stereo partly drawn) [AA_251_C], in that order: 10 to 100 nM, 1 to 10 nM and > 1 nM.
The matching figures for `COC(=O)N[C@H](C(=O)N1CCC[C@H]1c1ncc(-c2ccc(-c3ccc(-c4cnc(C5C6CCC(C6)[C@@H]5C(=O)NCc5cccnc5F)[nH]4)cc3)cc2)[nH]1)[C@@H](C)OC` (stereo partly drawn) [AA_252_A]: 1 to 10 nM, 0.101 to 1 nM and > 1 nM.
As to `COC(=O)N[C@H](C(=O)N1CCC[C@H]1c1ncc(-c2ccc(-c3ccc(-c4cnc(C5C6CCC(C6)[C@H]5C(=O)NCc5cccnc5F)[nH]4)cc3)cc2)[nH]1)[C@@H](C)OC` (stereo partly drawn) [AA_252_B], the EC50 in data set [1] fell in the range of 1 to 10 nM; in data set [2], 0.001 to 0.1 nM. Also, the CC50 at 3 days in data set [3] was > 1 nM.
The matching figures for `COC(=O)N[C@H](C(=O)N1CCC[C@H]1c1ncc(-c2ccc(-c3ccc(-c4cnc(C5C6CCC(C6)[C@H]5C(=O)N[C@H](C)c5cccnc5)[nH]4)cc3)cc2)[nH]1)[C@@H](C)OC` (stereo partly drawn) [AA_253_B]: 10 to 100 nM, 0.101 to 1 nM and > 1 nM.
The matching figures for `COC(=O)N[C@H](C(=O)N1CCC[C@H]1c1ncc(-c2ccc(-c3ccc(-c4cnc(C5C6CCC(C6)[C@@H]5C(=O)NCc5cncc(C(C)C)c5)[nH]4)cc3)cc2)[nH]1)[C@@H](C)OC` (stereo partly drawn) [AA_254_A]: 10 to 100 nM, 0.101 to 1 nM and > 1 nM.
For `COC(=O)N[C@H](C(=O)N1CCC[C@H]1c1ncc(-c2ccc(-c3ccc(-c4cnc(C5C6CCC(C6)[C@@H]5C(=O)NCc5cccnc5C(F)(F)F)[nH]4)cc3)cc2)[nH]1)[C@@H](C)OC` (stereo partly drawn) [AA_255_A], in that order: 10 to 100 nM, 0.001 to 0.1 nM and > 1 nM.
Regarding `COC(=O)N[C@H](C(=O)N1CCC[C@H]1c1ncc(-c2ccc(-c3ccc(-c4cnc(C5C6CCC(C6)[C@H]5C(=O)NCc5cccnc5C(F)(F)F)[nH]4)cc3)cc2)[nH]1)[C@@H](C)OC` (stereo partly drawn) [AA_255_B], the EC50 in data set [1] fell in the range of 10 to 100 nM; in data set [2], 0.001 to 0.1 nM. In addition, the half-maximal cytotoxic concentration (CC50) at 3 days in data set [3] was > 1 nM.
For `COC(=O)N[C@H](C(=O)N1CCC[C@H]1c1ncc(-c2ccc(-c3ccc(-c4cnc(C5C6CCC(C6)[C@@H]5C(=O)NCc5cccnc5C5CC5)[nH]4)cc3)cc2)[nH]1)[C@@H](C)OC` (stereo partly drawn) [AA_256_A], in that order: 10 to 100 nM, 0.001 to 0.1 nM and > 1 nM.
The matching figures for `COC(=O)N[C@H](C(=O)N1CCC[C@H]1c1ncc(-c2ccc(-c3ccc(-c4cnc(C5C6CCC(C6)[C@@H]5C(=O)NCc5cccnc5OC)[nH]4)cc3)cc2)[nH]1)[C@@H](C)OC` (stereo partly drawn) [AA_257_A]: 1 to 10 nM, 0.101 to 1 nM and > 1 nM.
The matching figures for `COC(=O)N[C@H](C(=O)N1CCC[C@H]1c1ncc(-c2ccc(-c3ccc(-c4cnc(C5C6CCC(C6)[C@@H]5C(=O)NNc5cccnc5)[nH]4)cc3)cc2)[nH]1)[C@@H](C)OC` (stereo partly drawn) [AA_258_B]: 10 to 100 nM, 1 to 10 nM and > 1 nM.
`COC(=O)N[C@H](C(=O)N1CCC[C@H]1c1ncc(-c2ccc(-c3ccc(-c4cnc(C5C6CCC(C6)[C@@H]5C(=O)NCc5cccnc5SC)[nH]4)cc3)cc2)[nH]1)[C@@H](C)OC` (stereo partly drawn) [AA_259_A]: the EC50 in data set [1] was 10 to 100 nM; in data set [2], 0.001 to 0.1 nM. In data set [3], the CC50 at 3 days was > 1 nM.
For `COC(=O)N[C@H](C(=O)N1CCC[C@H]1c1ncc(-c2ccc(-c3ccc(-c4cnc(C5C6CCC(C6)[C@H]5C(=O)NCc5cccnc5SC)[nH]4)cc3)cc2)[nH]1)[C@@H](C)OC` (stereo partly drawn) [AA_260_B], in that order: 10 to 100 nM, 0.001 to 0.1 nM and > 1 nM.
The matching figures for `COC(=O)N[C@H](C(=O)N1CCC[C@H]1c1ncc(-c2ccc(-c3ccc(-c4cnc(C5C6CCC(C6)[C@H]5C(=O)N[C@@H](C)c5ccccc5)[nH]4)cc3)cc2)[nH]1)[C@@H](C)OC` (stereo partly drawn) [AA_262_B]: 0.101 to 1 nM, 0.001 to 0.1 nM and > 1 nM.

(Values after patent US10160771B2, “Hepatitis C virus inhibitors and uses thereof in preparation of drugs” (priority 2014, dated 2018).)
